Consider 87 compounds from a melting point compilation (Tetko et al.; mined from patent text by program, amines drawn as free bases though some values may be those of a salt).

By melting point is commonly meant the temperature of the solid-liquid transition.

The compound `CCn1c(=O)c2cccnc2n(-c2cccc([N+](=O)[O-])c2)c1=O` yielded a melting point of 210 to 211 °C.

`CCOc1ccc(NC(=O)NCCc2ccccn2)cc1` displayed a melting point of 163 to 164 °C.

Compound `O=C(Nc1cccc(C(F)(F)F)c1)OCC1(COC(=O)Nc2cccc(C(F)(F)F)c2)CSc2ccccc2C1=O` returned a melting point of 58 to 63 °C.

`Cc1ccccc1-c1cc(-c2ccccc2C(=O)O)on1` showed a melting point of 162 to 164 °C.

Turning to `CC(=O)CC(=O)NC1CC(C)(C)NC(C)(C)C1`, the melting point stood at 115 °C.

Compound `C#CCON=C(C(=O)O)c1nc(NC(=O)C(F)(F)F)sc1Cl` returned a melting point of 178 to 180 °C.

`Cc1oc(-c2ccc(C(F)(F)F)cc2)nc1-c1ccc(-c2cc(Br)c(O)c(Br)c2)cc1` came in with a melting point of 79 to 81 °C.

Compound `CC(=O)OC1CSC(Oc2ccc(-c3cccnc3)cc2)C(OC(C)=O)C1OC(C)=O` (configuration not stated) showed a melting point of 150 °C.

In turn, `CN1c2ccc(-c3ccccc3)cc2Sc2cc(-c3ccccc3)ccc21` yielded a melting point of 239 to 241 °C.

`N#CN=C(Nc1cccnc1)NC1(c2ccccc2)CC=CC1`: the melting point fell in the range of 285 to 288 °C.

`c1csc(-c2ccc(-c3cn([C@H]4CN5CCC4CC5)nn3)cc2)c1`: the melting point came to 214 °C.

In turn, `CCOC(=O)N(O)Cc1cccc(Nc2ccccc2C(=O)OC)c1C` registered a melting point of 101 to 103 °C.

`CC(C)c1cccc(C(C)C)c1NC(=O)NCC1=CCCc2ccccc21`: the melting point lay in the range of 170 to 171 °C.

Turning to `CC#CCOc1cc(Oc2ccc(F)cc2)ncn1`, the melting point amounted to 116 °C.

`CC(=O)Nc1ccc2c3c(cccc13)S(=O)(=O)N2CCCCl` had a melting point of 205 °C.

`CC(C)(C)NC(=O)c1nn(-c2ccc([N+](=O)[O-])cc2)c2c1C1CCC2C1` (configuration not stated) came in with a melting point of 224 to 226 °C.

In the case of `COc1cccc(C(c2cccc(OC)c2)C(Nc2nc(OC)cc(OC)n2)C(=O)O)c1` (configuration not stated), the melting point was 58 to 66 °C.

Turning to `N#Cc1cnc2n(c1=O)CCC2`, the melting point fell in the range of 119 to 121 °C.

Compound `Cc1cc2c(-c3ccccc3Cl)c(N)c(=O)n(C)c2cc1C` yielded a melting point of 242 to 243 °C.

`CCCCC(=O)N(Cc1ccc(OC(F)(F)F)cc1)c1cc(Cl)cc(-c2nnn[nH]2)c1` displayed a melting point of 177 to 180 °C.

Compound `Cc1nc2c3c(c(C(=O)NN4CC4)cc2n1C)CCC(c1ccccc1)N3` (configuration not stated) showed a melting point of 192 to 193 °C.

`COc1ccc(C(=O)Nc2cc([N+](=O)[O-])ccc2Cl)cc1OC`: the melting point lay within 231 to 232 °C.

Compound `CCCc1cc(-c2nc3c(s2)CCCO3)ccc1O` returned a melting point of 152 to 154 °C.

Regarding `C=C(C(=O)OC)C(O)c1c(C)n(C(=O)OC(C)(C)C)c2ccc(C)c(O)c12` (configuration not stated), the melting point lay within 155 to 156 °C.

`C(#Cc1ccc(C=CC2=CC(c3ccc(C#Cc4ccccc4)cc3)N(c3ccccc3)N2)cc1)c1ccccc1` (configuration not stated) came in with a melting point of 212 to 214 °C.

The compound `CN1c2ccc(-c3cccc4ccccc34)cc2S(=O)c2cc(-c3cccc4ccccc34)ccc21` gave a melting point of 221 to 225 °C.

In turn, `O=C(O)C1CCc2[nH]c3ccc(Cl)c(Cl)c3c2C1` (configuration not stated) displayed a melting point of 244 to 245 °C.

In the case of `Nn1cc(C(=O)O)c(=O)c2cc(F)c(Cl)cc21`, the melting point was determined as 274 °C.

On to `O=C(NCSc1ncnc2nc[nH]c12)c1ccccc1`, for which the melting point lay in the range of 197 to 200 °C.

In turn, `Cc1nn(-c2ccc(C(=N)N)cc2)c(=O)n1-c1ccc(CCC(=O)O)cc1` came in with a melting point of 303 to 305 °C.

In turn, `O=C1C2C3C=CC(CC3)C2S(=O)(=O)N1CCCCBr` (configuration not stated) displayed a melting point of 118 to 122 °C.

Turning to `O=C(O)COc1cscc1Cl`, the melting point was determined as 123 °C.

`Cn1c(-c2cccnc2)cc(=O)n(C)c1=O` showed a melting point of 120 to 122 °C.

Compound `CC(=O)Nc1ccc(C(=O)c2cc(-c3cccnc3)c(N3CCOCC3)s2)cc1` showed a melting point of 120 °C.

Regarding `CC[C@H](C)[C@H](OCc1ccccc1)[C@H]1[C@H]([N+](=O)[O-])[C@@H]([C@@H](OCc2ccccc2)C(C)C)N[C@@H]1C(=O)NCC(=O)O`, the melting point lay in the range of 153 to 155 °C.

With `Fc1ccccc1COc1cccnc1NC(=S)Nc1ccc(Cl)cc1`, the melting point is 141 °C.

The compound `CC(Oc1ccccc1)C(=O)NCCO[N+](=O)[O-]` (configuration not stated) returned a melting point of 74 to 75 °C.

`COc1cc2c(-c3cc4cc(F)cnc4[nH]3)cn(C)c2cc1OC` showed a melting point of 283 °C.

Take `O=Cc1c(C#Cc2ccccc2)sc2ccccc12`: the melting point fell in the range of 105 to 106 °C.

The compound `CSc1ccc2[nH]c(=O)n(CCN3CCC(Nc4nc5ccccc5n4Cc4ccc(F)cc4)CC3)c(=O)c2c1` showed a melting point of 238 °C.

In the case of `Nc1ccc(-c2ccncc2)cc1[N+](=O)[O-]`, the melting point lay in the range of 234 to 238 °C.

For `Cc1cccc2c1C(=O)N(C)Cc1c(C#CC(C)(C)O)ncn1-2`, the melting point was 165 to 167 °C.

Compound `COCCOc1cc2ncc(C#N)c(Nc3cc(OC)c(OC)c(OC)c3)c2cc1OC` displayed a melting point of 188 to 190 °C.

The compound `CCC(=O)Oc1ccc(-c2oc3cc(OC)cc(OC(=O)CC)c3c(=O)c2OC)cc1OC` came in with a melting point of 106 to 107 °C.

Turning to `Fc1ccc(Oc2ccc(-c3ccn(-c4ncccn4)n3)cc2)cc1`, the melting point lay in the range of 123 to 125 °C.

As to `CC(C)n1nc(-c2c(-c3ccccc3)nn3cccc(O)c23)ccc1=O`, the melting point was in the range of 229 to 230 °C.

The compound `CCCCCC(C)(C)NC(=O)CN1C(=O)c2ccccc2C1=O` displayed a melting point of 142 °C.

With `CSc1nnc(-c2ccc(-c3ccccc3)cc2)n1-c1ccccc1F`, the melting point was 199 to 200 °C.

As for `COc1cc2c(cc1OC)C(CSc1nnnn1C)NCC2` (configuration not stated), the melting point lay in the range of 96 to 99 °C.

`CCCCc1ncc(/C=C(\Cc2cccs2)C(=O)O)n1Cc1ccccc1Cl` returned a melting point of 175 to 177 °C.

`N#CC1=C(C2CCCCCC2)Nc2n[nH]cc2C1c1cccc2nonc12` (configuration not stated) came in with a melting point of 228 °C.

`O=C1Nc2ccc(Cl)cc2C1(c1ccccc1)c1ccccc1`: the melting point was 281 °C.

For the compound `C/C(=C\C=C\Cn1oc(=O)[nH]c1=O)c1cccc(OCc2nc(-c3ccccc3)oc2C)c1`, the melting point fell in the range of 117 to 118 °C.

Turning to `Cc1ccc(NC(=O)NCC2(c3ccccc3)CCCCC2)cc1`, the melting point lay in the range of 135 to 137 °C.

In turn, `O=C(NCc1c(Cl)cccc1Oc1ccccc1)C1CCc2[nH]cnc2C1` (configuration not stated) showed a melting point of 197 to 199 °C.

In the case of `COc1cccc([C@H]2O[C@H](CC(=O)NCCc3occc3C(=O)O)C(=O)N(CC(C)(C)CO)c3ccc(Cl)cc32)c1OC`, the melting point lay within 126 to 129 °C.

`O=C(O)C1Cc2ccccc2CN1C(=O)c1ccc(Cl)cc1` (configuration not stated) displayed a melting point of 77 to 79 °C.

As for `CCC(CC)c1ccc(Cl)c2[nH]c(=O)n(C)c12`, the melting point was in the range of 165 to 166 °C.

In the case of `CCn1cc(C(=O)O)c(=O)c2cc(F)c(-c3csc(CNC)n3)c(OC)c21`, the melting point was in the range of 164 to 166 °C.

Consider `CC(C(=O)O)c1ccc(-c2ccc(O)cc2)c(F)c1` (configuration not stated), for which the melting point lay in the range of 195 to 197 °C.

`O=C(c1ccc([N+](=O)[O-])cc1)N1CCSC1=S` showed a melting point of 166 to 167 °C.

Take `COc1nc(C)nc(NC(=O)NS(=O)(=O)c2cccs2)n1`: the melting point lay in the range of 182 to 184 °C.

The compound `c1ccc2nc(N3CCNCC3)ncc2c1` returned a melting point of 64 to 66 °C.

Regarding `OCCN1CCC(Cc2ccccc2)CC1`, the melting point lay within 62 to 64 °C.

With `FC(F)(F)c1cc(N=NNc2cc(C(F)(F)F)cc(C(F)(F)F)c2)cc(C(F)(F)F)c1`, the melting point was 137 to 138 °C.

Compound `NS(=O)(=O)c1ccc(-c2cccc(-c3nc(-c4ccc(C(F)(F)F)cc4)cc(C(F)(F)F)n3)c2)s1` returned a melting point of 204 °C.

On to `O=C(O)CCCc1ccc(C(=O)C=Cc2ccccc2)cc1`, for which the melting point was in the range of 111 to 112 °C.

`O=C1Nc2ccc(Cl)cc2C(C#CC2CC2)(C(F)(F)F)CN1C1CC1` (configuration not stated) displayed a melting point of 195 to 196 °C.

`Cn1cc(-c2ccc(Cl)c(OC3SCC(O)C(O)C3O)c2)cn1` (configuration not stated) returned a melting point of 158 °C.

`O=C(CNC(=O)[C@@H]1CCCN1C(=O)O)NCc1ccccc1` gave a melting point of 112 to 115 °C.

On to `COC(=O)CCN1C[C@H]2Cc3ccccc3[C@H](c3ccccc3)[C@H]2C1` (racemic), for which the melting point lay in the range of 75 to 76 °C.

The compound `CCCc1ccccc1OCCCOc1ccc2c(c1CCC)OC(CCC(=O)O)(CCC(=O)O)CC2=O` returned a melting point of 163 to 165 °C.

Compound `CC1(C)C(=O)C(C(=O)c2ccc(Cl)cc2[N+](=O)[O-])C(=O)C(C)(C)C1=O` registered a melting point of 76 to 82 °C.

In turn, `CN(C)c1nc2sc3c(NCc4ccccn4)ncnc3c2c2c1COC(C)(C)C2` had a melting point of 217 to 218 °C.

`CN(C)CCCOc1ccc2sc(C(=O)Nc3ccccc3N)cc2c1`: the melting point was 164 to 167 °C.

`COc1ccc(N2C(=O)c3cccc(OC)c3NC2c2ccc(OCCCl)cc2)cc1` (configuration not stated) had a melting point of 122 to 124 °C.

In the case of `C[C@@H](c1ccc(F)cc1)N1CCN(c2cc(Oc3cc(F)cc4[nH]c(=O)c(N)nc34)ncn2)CC1`, the melting point was determined as 288 °C.

Regarding `N=C(N)N(CCCC(C=O)NC(=O)C1CCCN1C(=O)COc1ccccc1)C(=O)OCc1ccccc1` (configuration not stated), the melting point lay within 65 to 78 °C.

Consider `Cc1cc(C)cc(NCc2ccc3nc(NCCCN4CC(C)OC(C)C4)n(Cc4nc(C)ccc4O)c3c2)c1` (configuration not stated), for which the melting point was 192 °C.

Turning to `CNC(=C[N+](=O)[O-])NCCCOc1cccc(CCCN(C)C)c1`, the melting point is 59.5 to 61 °C.

For `CC(=O)Nc1c(C(=O)c2cccc(C(N)=O)c2)[nH]c2cc(Cl)ccc12`, the melting point lay within 243 to 247 °C.

Compound `Nc1ccc(Oc2ccc([N+](=O)[O-])cc2)cn1` yielded a melting point of 132 to 135 °C.

Take `O=C(O)CC[C@@H](Cc1ccc(OCc2ccccc2)cc1)NC(=O)CCCCCCc1ccccc1`: the melting point was in the range of 128 to 130 °C.

With `CCOC(=O)Cn1c(=O)[nH]c(=O)c2ccc(Cl)cc21`, the melting point was in the range of 242 to 243 °C.

`CC(=O)Nc1ccn(C2OC(COC(C)=O)C(OC(C)=O)C2O[N+](=O)[O-])c(=O)n1` (configuration not stated) gave a melting point of 160 to 161 °C.

The compound `Cc1ccccc1S(=O)(=O)c1cc2c(cc1C)OC(C(=O)O)O2` (configuration not stated) returned a melting point of 178 to 180 °C.

Regarding `NS(=O)(=O)c1ccc(N2CCN(Cc3cn4ccccc4n3)CC2)cc1`, the melting point is 238 to 242 °C.
